Reference: patent US8962641B2, “Pyrimidine-substituted pyrrolidine derivatives, pharmaceutical compositions and uses thereof” (Boehringer Ingelheim International GmbH, priority 2013, dated 2015)

Target: human ACC2 (Homo sapiens (Human), UniProt O00763)
Assay: ACC2 assay (spectrophotometric 384 well assay, NADH-linked kinetic method)
Assay type: biochemical
Settings: hACC2 construct lacking 128 N-terminal amino acids; coupled lactate dehydrogenase/pyruvate kinase reaction, 340 nm, 25° C.
Procedure, shortened: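 Baculovirus/insect-cell human ACC2, anion-exchange purified; ADP formation coupled to pyruvate kinase/lactate dehydrogenase, NADH loss followed at 340 nm, 25° C, 15 min. Final 200 μM NADH and acetyl-CoA, 500 uM ATP; vehicle and no-acetyl-CoA wells set 100% and 0%.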

Chain of human ACC2 (O00763 129-2458): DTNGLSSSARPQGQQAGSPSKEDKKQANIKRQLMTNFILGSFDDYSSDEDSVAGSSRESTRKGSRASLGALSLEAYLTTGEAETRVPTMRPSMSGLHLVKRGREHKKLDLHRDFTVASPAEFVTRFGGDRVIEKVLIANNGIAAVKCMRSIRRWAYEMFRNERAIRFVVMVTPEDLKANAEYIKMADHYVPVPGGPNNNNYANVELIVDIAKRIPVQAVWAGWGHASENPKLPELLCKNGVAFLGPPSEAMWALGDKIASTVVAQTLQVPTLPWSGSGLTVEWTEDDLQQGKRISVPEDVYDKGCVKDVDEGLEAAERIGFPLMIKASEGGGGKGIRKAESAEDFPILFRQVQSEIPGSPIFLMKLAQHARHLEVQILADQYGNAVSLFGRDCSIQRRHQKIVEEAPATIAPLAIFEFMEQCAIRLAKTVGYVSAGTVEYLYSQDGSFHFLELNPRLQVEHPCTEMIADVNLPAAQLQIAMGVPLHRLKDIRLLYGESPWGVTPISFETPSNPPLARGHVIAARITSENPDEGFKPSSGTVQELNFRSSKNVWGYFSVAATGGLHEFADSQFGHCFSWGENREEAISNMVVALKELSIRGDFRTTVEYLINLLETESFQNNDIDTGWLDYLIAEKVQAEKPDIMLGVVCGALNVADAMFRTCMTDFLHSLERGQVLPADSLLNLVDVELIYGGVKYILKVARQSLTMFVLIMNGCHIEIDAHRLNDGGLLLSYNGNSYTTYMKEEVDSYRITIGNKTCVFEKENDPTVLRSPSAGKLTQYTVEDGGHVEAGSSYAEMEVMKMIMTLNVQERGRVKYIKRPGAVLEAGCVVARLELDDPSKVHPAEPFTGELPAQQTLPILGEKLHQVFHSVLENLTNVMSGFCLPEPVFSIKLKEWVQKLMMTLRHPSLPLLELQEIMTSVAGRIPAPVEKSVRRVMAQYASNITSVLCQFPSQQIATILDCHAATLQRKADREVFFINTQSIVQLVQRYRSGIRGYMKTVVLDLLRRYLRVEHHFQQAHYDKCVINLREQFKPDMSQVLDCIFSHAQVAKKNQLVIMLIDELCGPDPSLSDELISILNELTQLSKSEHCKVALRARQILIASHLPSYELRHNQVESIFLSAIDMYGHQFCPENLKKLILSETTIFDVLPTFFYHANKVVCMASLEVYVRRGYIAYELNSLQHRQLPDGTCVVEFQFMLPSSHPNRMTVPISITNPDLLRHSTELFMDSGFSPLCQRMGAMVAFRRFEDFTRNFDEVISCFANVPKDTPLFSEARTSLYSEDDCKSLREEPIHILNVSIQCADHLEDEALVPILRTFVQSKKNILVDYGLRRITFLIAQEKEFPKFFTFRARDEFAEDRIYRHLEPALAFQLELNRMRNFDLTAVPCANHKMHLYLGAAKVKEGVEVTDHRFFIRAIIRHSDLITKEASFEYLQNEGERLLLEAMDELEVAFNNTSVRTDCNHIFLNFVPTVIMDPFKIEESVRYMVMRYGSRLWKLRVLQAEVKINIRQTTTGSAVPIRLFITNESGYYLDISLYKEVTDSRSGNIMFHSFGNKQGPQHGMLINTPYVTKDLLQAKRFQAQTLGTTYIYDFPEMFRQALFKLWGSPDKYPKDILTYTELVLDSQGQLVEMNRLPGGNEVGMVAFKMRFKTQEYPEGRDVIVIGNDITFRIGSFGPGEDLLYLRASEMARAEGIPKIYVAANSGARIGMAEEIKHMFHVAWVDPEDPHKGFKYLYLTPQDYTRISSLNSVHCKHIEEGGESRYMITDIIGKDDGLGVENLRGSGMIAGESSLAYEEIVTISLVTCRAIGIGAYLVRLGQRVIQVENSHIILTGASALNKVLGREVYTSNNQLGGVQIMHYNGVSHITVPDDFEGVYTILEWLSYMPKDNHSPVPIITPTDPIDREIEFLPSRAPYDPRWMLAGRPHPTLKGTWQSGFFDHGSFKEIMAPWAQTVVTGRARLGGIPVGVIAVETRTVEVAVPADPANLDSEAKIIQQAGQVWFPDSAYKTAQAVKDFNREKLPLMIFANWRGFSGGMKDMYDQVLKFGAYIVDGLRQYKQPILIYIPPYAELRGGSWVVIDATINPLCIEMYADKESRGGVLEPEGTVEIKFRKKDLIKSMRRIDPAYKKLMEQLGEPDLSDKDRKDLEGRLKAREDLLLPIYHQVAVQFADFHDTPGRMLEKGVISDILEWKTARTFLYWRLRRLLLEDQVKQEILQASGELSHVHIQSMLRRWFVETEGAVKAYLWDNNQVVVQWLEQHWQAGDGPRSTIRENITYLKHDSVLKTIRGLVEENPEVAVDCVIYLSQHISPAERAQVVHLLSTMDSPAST

IC50 [nM] | SMILES
116 | CC(=O)N[C@@H](C)c1ccc(O[C@@H]2CCN(c3ncnc(N4CC(F)(F)C4)c3Cl)C2)cc1 [Example 8.111]
53 | CC(=O)N[C@@H](C)c1ccc(O[C@@H]2CCN(c3ncnc(N4CCCCC4)c3Cl)C2)cc1 [Example 8.112]
40 | CC(=O)N[C@@H](C)c1ccc(O[C@@H]2CCN(c3ncnc(N4CCC5(CC5)C4)c3Cl)C2)cc1 [Example 8.113]
80 | CC(=O)N[C@@H](C)c1ccc(O[C@@H]2CCN(c3ncnc(N4CCC(F)(F)C4)c3Cl)C2)cc1 [Example 8.114]
166 | CC(=O)N[C@@H](C)c1ccc(O[C@@H]2CCN(c3ncnc(N(C)CC(F)F)c3Cl)C2)cc1 [Example 8.115]
470 | CCN(CCC#N)c1ncnc(N2CC[C@@H](Oc3ccc([C@H](C)NC(C)=O)cc3)C2)c1Cl [Example 8.116]
485 | CC(=O)N[C@@H](C)c1ccc(O[C@@H]2CCN(c3ncnc(N4CCOCC4)c3Cl)C2)cc1 [Example 8.117]
2460 | CCNc1ncnc(N2CC[C@@H](Oc3ccc([C@H](C)NC(C)=O)cc3)C2)c1F [Example 8.118]
209 | CC(=O)N[C@@H](C)c1ccc(O[C@@H]2CCN(c3ncnc(NC4CCCC4)c3F)C2)cc1 [Example 8.119]
413 | CCCNc1ncnc(N2CC[C@@H](Oc3ccc([C@H](C)NC(C)=O)cc3)C2)c1F [Example 8.120]
169 | CC(=O)N[C@@H](C)c1ccc(O[C@@H]2CCN(c3ncnc(NCC4CC4)c3F)C2)cc1 [Example 8.121]
547 | CC(=O)N[C@@H](C)c1ccc(O[C@@H]2CCN(c3ncnc(N(C)CC4CCOC4)c3F)C2)cc1 (stereo partly drawn) [Example 8.122]
111 | CC(=O)N[C@@H](C)c1ccc(O[C@@H]2CCN(c3nc(N(C)C4CCCC4)ncc3Cl)C2)cc1 [Example 8.124]
90 | CC(=O)N[C@@H](C)c1ccc(O[C@@H]2CCN(c3ncnc(N(C)C4CCCC4)c3F)C2)cc1 [Example 8.125]
58 | CC(=O)N[C@@H](C)c1ccc(O[C@@H]2CCN(c3nc(N(C)CC4CC4)ncc3Cl)C2)cc1 [Example 8.126]
107 | CC(=O)N[C@@H](C)c1ccc(O[C@@H]2CCN(c3nc(N4CCCCC4)ncc3Cl)C2)cc1 [Example 8.127]
278 | CC(=O)N[C@@H](C)c1ccc(O[C@@H]2CCN(c3nc(N4CCC(F)(F)C4)ncc3Cl)C2)cc1 [Example 8.128]
67 | CC(=O)N[C@@H](C)c1ccc(O[C@@H]2CCN(c3ncnc(N4CCCC4)c3F)C2)cc1 [Example 8.129]
79 | COCCN(C)c1ncc(Cl)c(N2CC[C@@H](Oc3ccc([C@H](C)NC(C)=O)cc3)C2)n1 [Example 8.130]
461 | CC(=O)N[C@@H](C)c1ccc(O[C@@H]2CCN(c3nc(N(C)CCC#N)ncc3Cl)C2)cc1 [Example 8.131]
206 | CC(=O)N[C@@H](C)c1ccc(O[C@@H]2CCN(c3ncnc(N(C)CC(F)F)c3F)C2)cc1 [Example 8.132]
299 | CC(=O)N[C@@H](C)c1ccc(O[C@@H]2CCN(c3ncnc(N(C)C4CC4)c3F)C2)cc1 [Example 8.133]
208 | COCCN(C)c1ncnc(N2CC[C@@H](Oc3ccc([C@H](C)NC(C)=O)cc3)C2)c1F [Example 8.134]

IC50 [nM] | SMILES
131 | CC(=O)N[C@@H](C)c1ccc(O[C@@H]2CCN(c3ncnc(N(C)C(C)C)c3F)C2)cc1 [Example 8.135]
70 | CC(=O)N[C@@H](C)c1ccc(O[C@@H]2CCN(c3nc(N(C)CC(F)F)ncc3Cl)C2)cc1 [Example 8.136]
672 | CC(=O)N[C@@H](C)c1ccc(O[C@@H]2CCN(c3ncnc(N(C)CCC#N)c3F)C2)cc1 [Example 8.137]
105 | CC(=O)N[C@@H](C)c1ccc(O[C@@H]2CCN(c3ncnc(N4CCCCC4)c3F)C2)cc1 [Example 8.138]
49 | CC(=O)N[C@@H](C)c1ccc(O[C@@H]2CCN(c3ncnc(N4CCC(C)C4)c3F)C2)cc1 (stereo partly drawn) [Example 8.139]
109 | CC(=O)N[C@@H](C)c1ccc(O[C@@H]2CCN(c3ncnc(N4CCC(F)(F)C4)c3F)C2)cc1 [Example 8.140]
148 | CC(=O)N[C@@H](C)c1ccc(O[C@@H]2CCN(c3nc(N(C)C(C)C)ncc3Cl)C2)cc1 [Example 8.141]
138 | CC(=O)N[C@@H](C)c1ccc(O[C@@H]2CCN(c3nc(N4CCC(C)C4)ncc3Cl)C2)cc1 (stereo partly drawn) [Example 8.142]
429 | CC(=O)N[C@@H](C)c1ccc(O[C@@H]2CCN(c3ncnc(N4CCOCC4)c3F)C2)cc1 [Example 8.143]
104 | CCCN(C)c1ncnc(N2CC[C@@H](Oc3ccc([C@H](C)NC(C)=O)cc3)C2)c1F [Example 8.144]
93 | CC(=O)N[C@@H](C)c1ccc(O[C@@H]2CCN(c3nc(N(C)C4CC4)ncc3Cl)C2)cc1 [Example 8.145]
984 | CC(=O)N[C@@H](C)c1ccc(O[C@@H]2CCN(c3nc(N4C[C@@H]5C[C@H]4CO5)ncc3Cl)C2)cc1 [Example 8.146]
2320 | CC(=O)N[C@@H](C)c1ccc(O[C@@H]2CCN(c3ncnc(N4C[C@@H]5C[C@H]4CO5)c3F)C2)cc1 [Example 8.147]
198 | CC(=O)N[C@@H](C)c1ccc(O[C@@H]2CCN(c3ncnc(N(C)C[C@H]4CCCO4)c3F)C2)cc1 [Example 8.148]
387 | CCN(CCC#N)c1ncc(Cl)c(N2CC[C@@H](Oc3ccc([C@H](C)NC(C)=O)cc3)C2)n1 [Example 8.149]
159 | COC[C@@H](C)N(C)c1ncc(F)c(N2CC[C@@H](Oc3ccc([C@H](C)NC(C)=O)cc3)C2)n1 [Example 8.150]
215 | CC(=O)N[C@@H](C)c1ccc(O[C@@H]2CCN(c3nc(N4CCCC4(C)C)ncc3Cl)C2)cc1 [Example 8.152]
679 | COC1CCN(c2ncc(Cl)c(N3CC[C@@H](Oc4ccc([C@H](C)NC(C)=O)cc4)C3)n2)CC1 [Example 8.153]
103 | CC(=O)N[C@@H](C)c1ccc(O[C@@H]2CCN(c3nc(N4CCCC4C)ncc3Cl)C2)cc1 (stereo partly drawn) [Example 8.154]
613 | CC(=O)N[C@@H](C)c1ccc(O[C@@H]2CCN(c3nc(N4C[C@@H]5C[C@H]4CO5)ncc3F)C2)cc1 [Example 8.155]
153 | CC(=O)N[C@@H](C)c1ccc(O[C@@H]2CCN(c3nc(N4CCC(C)(O)C4)ncc3F)C2)cc1 (stereo partly drawn) [Example 8.156]
105 | CC(=O)N[C@@H](C)c1ccc(O[C@@H]2CCN(c3nc(N(C)C4CCOCC4)ncc3F)C2)cc1 [Example 8.157]
56 | CC(=O)N[C@@H](C)c1ccc(O[C@@H]2CCN(c3nc(N(C)CCC(F)(F)F)ncc3F)C2)cc1 [Example 8.158]

IC50 [nM] | SMILES
151 | CC(=O)N[C@@H](C)c1ccc(O[C@@H]2CCN(c3ncnc(N(C)CCC(F)(F)F)c3F)C2)cc1 [Example 8.159]
384 | CC(=O)N[C@@H](C)c1ccc(O[C@@H]2CCN(c3ncnc(N4CCCC(F)(F)C4)c3F)C2)cc1 [Example 8.161]
476 | CC(=O)N[C@@H](C)c1ccc(O[C@@H]2CCN(c3ncnc(N4CC[C@@H](F)C4)c3F)C2)cc1 [Example 8.162]
469 | CC(=O)N[C@@H](C)c1ccc(O[C@@H]2CCN(c3cc(N4CCOCC4C)ncn3)C2)cc1 (stereo partly drawn) [Example 8.163]
102 | CC(=O)N[C@@H](C)c1ccc(O[C@@H]2CCN(c3nc(N(C)CC(C)C)ncc3F)C2)cc1 [Example 8.164]
75 | CC(=O)N[C@@H](C)c1ccc(O[C@@H]2CCN(c3nc(N(C)C[C@@H]4CCCO4)ncc3F)C2)cc1 [Example 8.165]
105 | CC(=O)N[C@@H](C)c1ccc(O[C@@H]2CCN(c3nc(N(C)C4CCCOC4)ncc3F)C2)cc1 (stereo partly drawn) [Example 8.166]
101 | COCCCN(C)c1ncc(F)c(N2CC[C@@H](Oc3ccc([C@H](C)NC(C)=O)cc3)C2)n1 [Example 8.167]
173 | COCCCN(C)c1ncc(Cl)c(N2CC[C@@H](Oc3ccc([C@H](C)NC(C)=O)cc3)C2)n1 [Example 8.168]
175 | CC(=O)N[C@@H](C)c1ccc(O[C@@H]2CCN(c3ccnc(N(C)CC(C)C)n3)C2)cc1 [Example 8.171]
675 | CC(=O)N[C@@H](C)c1ccc(O[C@@H]2CCN(c3ncnc(N4CC5COCC5C4)c3F)C2)cc1 (stereo partly drawn) [Example 8.172]
155 | CC(=O)N[C@@H](C)c1ccc(O[C@@H]2CCN(c3nc(N4[C@H](C)CCC[C@H]4C)ncc3Cl)C2)cc1 [Example 8.173]
170 | CC(=O)N[C@@H](C)c1ccc(O[C@@H]2CCN(c3nc(N4CCOC(C(F)(F)F)C4)ncc3Cl)C2)cc1 (stereo partly drawn) [Example 8.174]
1380 | CC(=O)N[C@@H](C)c1ccc(O[C@@H]2CCN(c3nc(N4CCc5nocc5C4)ncc3Cl)C2)cc1 [Example 8.175]
683 | CC(=O)N[C@@H](C)c1ccc(O[C@@H]2CCN(c3ncnc(N4CCOC(C)(C)C4)c3F)C2)cc1 [Example 8.176]
476 | COC[C@H](C)N(C)c1ncnc(N2CC[C@@H](Oc3ccc([C@H](C)NC(C)=O)cc3)C2)c1F [Example 8.177]
389 | CCN(CCO)c1ncc(Cl)c(N2CC[C@@H](Oc3ccc([C@H](C)NC(C)=O)cc3)C2)n1 [Example 8.178]
358 | CC(=O)N[C@@H](C)c1ccc(O[C@@H]2CCN(c3ncnc(N4CCOC(C)C4)c3F)C2)cc1 (stereo partly drawn) [Example 8.179]
278 | CC(=O)N[C@@H](C)c1ccc(O[C@@H]2CCN(c3ccnc(N(C)C4CCCOC4)n3)C2)cc1 (stereo partly drawn) [Example 8.180]
531 | CC(=O)N[C@@H](C)c1ccc(O[C@@H]2CCN(c3nc(N4CC[C@@H](F)C4)ncc3F)C2)cc1 [Example 8.181]
1120 | COC[C@H]1CCCN1c1ncc(F)c(N2CC[C@@H](Oc3ccc([C@H](C)NC(C)=O)cc3)C2)n1 [Example 8.182]
807 | CC(=O)N[C@@H](C)c1ccc(O[C@@H]2CCN(c3nc(N4CCC(CO)C4)ncc3F)C2)cc1 (stereo partly drawn) [Example 8.183]
220 | CC(=O)N[C@@H](C)c1ccc(O[C@@H]2CCN(c3nc(N4CC[C@H](F)C4)ncc3F)C2)cc1 [Example 8.184]
